Reference: ChEMBL document CHEMBL1201862, “PubChem BioAssay data set” (2004)
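In this assay, cells in 96-well plates receive the compound at five concentrations for 48 hours. Endpoints are linearly interpolated between the surrounding concentrations. Abbreviation: GI50, concentration required for 50% inhibition of growth.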 The source made the active and inactive calls. Cut-off read from the data, not from the text of the source: active = GI50 up to about 1.1 µM and inactive = higher.

Tests used:
Experiment in all cases: NCI tumour cell line growth inhibition, 48 h
786-0 = test system: 786-0
A498 = test system: A498
A549 = test system: A549
ACHN = test system: ACHN
CAKI-1 = test system: CAKI-1
CCRF-CEM = test system: CCRF-CEM
COLO 205 = test system: COLO 205
DLD-1 = test system: DLD-1
DMS-114 = test system: DMS-114
DMS-273 = test system: DMS-273
EKVX = test system: EKVX
HCC 2998 = test system: HCC 2998
HCT-116 = test system: HCT-116
HOP-62 = test system: HOP-62
HOP-92 = test system: HOP-92
HT-29 = test system: HT-29
IGROV-1 = test system: IGROV-1
K562 = test system: K562
KM-20L2 = test system: KM-20L2
KM12 = test system: KM12
LXFL 529 = test system: LXFL 529
M14 = test system: M14
M19-MEL = test system: M19-MEL
MOLT-4 = test system: MOLT-4
Malme-3M = test system: Malme-3M
NCI-H226 = test system: NCI-H226
NCI-H23 = test system: NCI-H23
NCI-H460 = test system: NCI-H460
NCI-H522 = test system: NCI-H522
OVCAR-3 = test system: OVCAR-3
OVCAR-4 = test system: OVCAR-4
OVCAR-5 = test system: OVCAR-5
OVCAR-8 = test system: OVCAR-8
RPMI-8226 = test system: RPMI-8226
RXF 631 = test system: RXF 631
SF-268 = test system: SF-268
SF-539 = test system: SF-539
SK-MEL-28 = test system: SK-MEL-28
SK-MEL-2 = test system: SK-MEL-2
SK-MEL-5 = test system: SK-MEL-5
SK-OV-3 = test system: SK-OV-3
SN12C = test system: SN12C
SNB-19 = test system: SNB-19
SNB-75 = test system: SNB-75
SR = test system: SR
SW-620 = test system: SW-620
U-251 = test system: U-251
UACC-257 = test system: UACC-257
UACC-62 = test system: UACC-62
UO-31 = test system: UO-31
XF498 = test system: XF498

Measured: GI50

COc1ccc(/C=C\c2cc(OC)c(O[Si](C)(C)C(C)(C)C)c(OC)c2)cc1
inactive: 786-0 39.9 µM | A498 21 µM | A549 38.6 µM | ACHN 31.2 µM | CAKI-1 49.3 µM | CCRF-CEM 23.7 µM | COLO 205 68.9 µM | DLD-1 45.3 µM | DMS-114 20.3 µM | DMS-273 44.4 µM | EKVX 70 µM | HCC 2998 26.1 µM | HCT-116 33.7 µM | HOP-62 > 100 µM | HOP-92 28.3 µM | HT-29 15 µM | IGROV-1 > 100 µM | K562 39.1 µM | KM-20L2 45.3 µM | KM12 47.2 µM | LXFL 529 33.7 µM | M14 45.4 µM | M19-MEL 32.3 µM | MOLT-4 15.8 µM | Malme-3M 34.8 µM | NCI-H226 31.8 µM | NCI-H23 54 µM | NCI-H460 33 µM | NCI-H522 38.5 µM | OVCAR-3 55.5 µM | OVCAR-4 76.6 µM | OVCAR-5 20.6 µM | OVCAR-8 15.6 µM | RPMI-8226 27.4 µM | RXF 631 45.8 µM | SF-268 45.5 µM | SF-539 37.8 µM | SK-MEL-28 13.2 µM | SK-MEL-2 23.9 µM | SK-MEL-5 > 10 µM | SK-OV-3 > 100 µM | SN12C 39.1 µM | SNB-19 47.6 µM | SNB-75 64.9 µM | SR 19.7 µM | SW-620 33.3 µM | U-251 19.4 µM | UACC-257 21.7 µM | UACC-62 55 µM | UO-31 80.9 µM | XF498 22.6 µM
